How the values were obtained:
Format in all cases: in vivo, human
[1] = system: clinically stable subjects with schizophrenia; assay: UCSD Performance-Based Skills Assessment-2 (UPSA-2), Clinical Study A
From the text: (§1) A Phase 2a proof-of-concept (POC) study in clinically stable subjects with schizophrenia who were clinically stable and received stable doses of atypical antipsychotic therapy. The study was a Phase 2, multi-center, randomized, double-blind, placebo-controlled, parallel group study designed to evaluate the safety and efficacy of doses of (4s)-4-(5-phenyl-1,3,4-thiadiazol-2-yloxy)-1-azatricyclo[3.3.1.1^3,7]decane (Compound A) in clinically stable male and female subjects (ages 20 to 55, inclusive) with a Diagnostic and Statistical Manual of Mental Disorders—Fourth Edition, Text Revision (DSM-IV-TR) diagnosis of schizophrenia. Psychiatric diagnoses were confirmed using the Mini-International Neuropsychiatric Interview (MINI) version 6.0.0. The criteria for clinical stability was determined by a combination of retrospective data (over the 4 months prior to the start of Screening, which will be supported by clinical records, patient, identified responsible contact person, and physician interviews), and prospective data assessed during the Prospective Stabilization Period of 28 to 42 days duration.
The study was a Phase 2, multi-center, randomized, double-blind, placebo-controlled, parallel group study designed to evaluate the safety and efficacy of doses of (4s)-4-(5-phenyl-1,3,4-thiadiazol-2-yloxy)-1-azatricyclo[3.3.1.1^3,7]decane, which is also recognized as Compound A, in treating cognitive deficits in subjects with schizophrenia who were clinically stable and receiving one or two atypical antipsychotic medications. Study drug was administered orally.
(§2) The study consisted of a screening period of at least 28 and up to 42 days, a 84-day outpatient treatment period, a 14-day post-treatment period, and a post-treatment follow-up period. The screening period consisted of three visits: Screening Visit 1, Screening Visit 2, and Day −1. Upon completion of Day −1 procedures, eligible subjects were randomized through an Interactive Voice Response/Interactive Web-Based (IVR/IWB) system. Subjects were randomized in an equal ratio to one of three treatment groups (placebo, 10 mg Compound A, or 25 mg Compound A).
(§3) The primary endpoint was the MCCB composite score, and the primary endpoint analysis was the change on the MCCB composite score from baseline to endpoint versus placebo. Other secondary measures included the MCCB domains, the NSA-16, the CANTAB cognition battery (measured at different time points from the MCCB), and the UPSA-2. The Positive and Negative Syndrome Scale (PANSS) was included to document stability in schizophrenia symptomatology.
The UCSD Performance-Based Skills Assessment-2 (UPSA-2) is a role-play test designed for subjects with schizophrenia to evaluate cognitive functional capacity in six selected domains of basic living skills. These areas include Organization/Planning, Financial Skills, Communication, Transportation, Household Management, and Medication Management. […] Scores were obtained for each subtest, and the total score was the sum of these subtests. […] The UPSA-2 required an average of 30 minutes to administer. The UPSA-2 was administered in on Days 14, 28, 56, 84 and 98.

[2] = system: clinically stable subjects with schizophrenia; assay: Disposition of subjects and tolerability, Clinical Study A
From the text: as §1, §2
Subjects completed 2 visits during the screening period. Study site personnel contacted each subject by telephone on Day 21, 35, and 70 of the 84-day treatment period to discuss study drug compliance, antipsychotic medication compliance, concomitant medication use, substance use, and any adverse events.
A total of 207 subjects were randomized.

[3] = system: clinically stable subjects with schizophrenia; assay: MATRICS Consensus Cognitive Battery (MCCB), Phase 2a Clinical Study A, ITT; settings: 25 mg QD, Change to Week 12
From the text: as §1, with “Psychiatric diagnoses were confirmed using the Mini-International Neuropsychiatric Interview (MINI) version 6.0.0.” left out, “duration. […]” for “duration.”
as §3, with “The Positive and Negative Syndrome Scale (PANSS) was included to document stability in schizophrenia symptomatology.” left out

## c1ccc(-c2nnc(O[C@@H]3C4CC5C[C@H]3C[N@](C5)C4)s2)cc1 [Compound A, (4s)-4-(5-phenyl-1,3,4-thiadiazol-2-yloxy)-1-azatricyclo[3.3.1.1^3,7]decane]
[1]; 10 mg, P=0.094
  UPSA-2 medication management subscale score: statistically significant improvement or statistical trend for improvement
[1]; 10 mg, P=0.096
  UPSA-2 household skills subscale score: statistically significant improvement or statistical trend for improvement
[1]; 10 mg, P=0.102
  UPSA-2 comprehension/planning subscale score: statistically significant improvement or statistical trend for improvement
[1]; 25 mg, P=0.005
  UPSA-2 comprehension/planning subscale score: statistically significant improvement or statistical trend for improvement
[1]; either dose group (10 mg, 25 mg)
  UPSA-2 composite score, significance versus placebo: No significance
[2]; 10 mg QD
  Discontinuation: Adverse event: 4 (5.8) n (%)
[2]; 25 mg QD
  Discontinuation: Adverse event: 3 (4.5) n (%)
[2]; Compound A overall
  Discontinuation: Adverse event: 7 (5.1) n (%)
[2]; subjects with schizophrenia, doses up to 25 mg QD, including 10 mg QD and 25 mg QD
  tolerability: well tolerated
[3]
  MCCB Verbal Learning, Observed Mean (SD) change from baseline: 2.24 (8.03) T-score
